In brackets after ≈: the same amount, converted by molar mass. Activity calls are given as the source filed them. The calls are words filed in the database; no cut-off is given here.
Tests used:
Staphylococcus aureus [1] = assay: Induction of resistance development in methicillin-resistant Staphylococcus aureus ATCC 33591 assessed as fold increase in MIC measured after 3 days by broth dilution method relative to control; assay type: functional; conditions: time 3.0 day
Staphylococcus aureus [2] = assay: Induction of resistance development in methicillin-resistant Staphylococcus aureus ATCC 33591 assessed as fold increase in MIC measured after 5 days by broth dilution method relative to control; assay type: functional; conditions: time 5.0 day
Staphylococcus aureus [3] = assay: Induction of resistance development in methicillin-resistant Staphylococcus aureus ATCC 33591 assessed as fold increase in MIC measured after 10 days by broth dilution method relative to control; assay type: functional; conditions: time 10.0 day
[4] = system: Staphylococcus epidermidis; assay: Antibacterial activity against Staphylococcus epidermidis MTCC 3615 incubated for 16 to 18 hrs by broth dilution method; assay type: functional; conditions: time 16-18 hrs
Enterococcus faecium [5] = assay: Antibacterial activity against Enterococcus faecium ATCC 19634 incubated for 16 to 18 hrs by broth dilution method; assay type: functional; conditions: time 16-18 hrs
Staphylococcus aureus [6] = assay: Antibacterial activity against vancomycin-resistant Staphylococcus aureus 1 incubated for 16 to 18 hrs by broth dilution method; assay type: functional; conditions: time 16-18 hrs
Staphylococcus aureus [7] = assay: Antibacterial activity against vancomycin-resistant Staphylococcus aureus 4 incubated for 16 to 18 hrs by broth dilution method; assay type: functional; conditions: time 16-18 hrs
Enterococcus faecium [8] = assay: Antibacterial activity against vancomycin-resistant Enterococcus faecium 903 incubated for 16 to 18 hrs by broth dilution method; assay type: functional; conditions: time 16-18 hrs
Enterococcus faecium [9] = assay: Antibacterial activity against vancomycin-resistant Enterococcus faecium 909 incubated for 16 to 18 hrs by broth dilution method; assay type: functional; conditions: time 16-18 hrs
Staphylococcus aureus [10] = assay: Antibiofilm activity against methicillin-resistant Staphylococcus aureus ATCC 33591 assessed as eradication of enclosed biofilm measuring by reduction in green fluorescence at 32 ug/ml by Syto-9/PI staining based confocal laser scanning microscopy; assay type: functional, organism-based; conditions: dose 32.0 µg/ml

SMILES: CC(=O)O[C@H]1C[C@@]2(C)[C@@H](C[C@@H](O)[C@H]3[C@@]4(C)CC[C@@H](O)[C@@H](C)[C@@H]4CC[C@@]32C)/C1=C(\CCC=C(C)C)C(=O)O
- fold change (FC) (Staphylococcus aureus [1]): 32
- fold change (FC) (Staphylococcus aureus [2]): 128
- fold change (FC) (Staphylococcus aureus [3]): 4000

SMILES: CC(=O)NC[C@H]1CN(c2ccc(N3CCOCC3)c(F)c2)C(=O)O1 [LINEZOLID]
- MIC [4]: 2 µg/mL (≈ 5.93 µM)
- MIC (Enterococcus faecium [5]): 4 µg/mL (≈ 11.9 µM)
- MIC (Staphylococcus aureus [6]): 1 µg/mL (≈ 2.96 µM)
- MIC (Staphylococcus aureus [7]): 1 µg/mL (≈ 2.96 µM)
- MIC (Enterococcus faecium [8]): 32 µg/mL (≈ 94.9 µM)
- MIC (Enterococcus faecium [9]): 2 µg/mL (≈ 5.93 µM)

SMILES: CN[C@H](CC(C)C)C(=O)N[C@H]1C(=O)N[C@@H](CC(N)=O)C(=O)N[C@H]2C(=O)N[C@H]3C(=O)N[C@H](C(=O)N[C@H](C(=O)O)c4cc(O)cc(O)c4-c4cc3ccc4O)[C@H](O)c3ccc(c(Cl)c3)Oc3cc2cc(c3O[C@@H]2O[C@H](CO)[C@@H](O)[C@H](O)[C@H]2O[C@H]2C[C@](C)(N)[C@H](O)[C@H](C)O2)Oc2ccc(cc2Cl)[C@H]1O [VANCOMYCIN]
- MIC (Staphylococcus aureus [6]): 512 µg/mL (≈ 353 µM)
- MIC (Staphylococcus aureus [7]): 512 µg/mL (≈ 353 µM)
- MIC (Enterococcus faecium [8]): 1020 µg/mL (≈ 707 µM)
- MIC (Enterococcus faecium [9]): 512 µg/mL (≈ 353 µM)
- Activity (Staphylococcus aureus [10]): inactive

Reference: ChEMBL document CHEMBL5532755, “Unveiling the potent activity of a synthetic ion transporter against multidrug-resistant Gram-positive bacteria and biofilms” (RSC Med Chem, 2024)
